Test results as given in the NIST ThermoML archive (doi:10.1016/j.jct.2018.10.006).

Assay: molar heat capacity at constant pressure
Conditions: 101.33 kPa

O=P([O-])([O-])[O-].[Cs+].[Ni+2] [cesium nickel monophosphate]
Conditions	molar heat capacity at constant pressure [J/K/mol]
344.8 K, Crystal 2, DSC	162.96
345.8 K, Crystal 2, DSC	163.79
346.8 K, Crystal 2, DSC	163.79
347.8 K, Crystal 2, DSC	163.79
348.8 K, Crystal 2, DSC	164.63
349.8 K, Crystal 2, DSC	165.46
350 K, Crystal 2, Small (less than 1 g) adiabatic calorimetry	165.04
350.8 K, Crystal 2, DSC	165.46
351.8 K, Crystal 2, DSC	165.46
352.8 K, Crystal 2, DSC	166.29
353.8 K, Crystal 2, DSC	167.12
354.8 K, Crystal 2, DSC	167.12
355.8 K, Crystal 2, DSC	167.12
356.8 K, Crystal 2, DSC	167.95
357.8 K, Crystal 2, DSC	167.95
358.8 K, Crystal 2, DSC	168.78
359.8 K, Crystal 2, DSC	168.78
360 K, Crystal 2, Small (less than 1 g) adiabatic calorimetry	169.2
360.8 K, Crystal 2, DSC	169.61
361.8 K, Crystal 2, DSC	170.45
362.8 K, Crystal 2, DSC	170.45
363.8 K, Crystal 2, DSC	170.45
364.8 K, Crystal 2, DSC	171.28
365.8 K, Crystal 2, DSC	172.11
366.8 K, Crystal 2, DSC	172.11
367.8 K, Crystal 2, DSC	172.94
368.8 K, Crystal 2, DSC	172.94
369.8 K, Crystal 2, DSC	172.94
370 K, Crystal 2, Small (less than 1 g) adiabatic calorimetry	173.36
370.8 K, Crystal 2, DSC	173.77
371.8 K, Crystal 2, DSC	173.77
372.8 K, Crystal 2, DSC	174.6
373.8 K, Crystal 2, DSC	175.44
374.8 K, Crystal 2, DSC	177.1
376.3 K, Crystal 2, DSC	180.42
380 K, Crystal 2, Small (less than 1 g) adiabatic calorimetry	176.27
382.8 K, Crystal 1, DSC	178.26
382.8 K, Crystal 2, Small (less than 1 g) adiabatic calorimetry	176.68
387.8 K, Crystal 1, DSC	183.75
388.8 K, Crystal 1, DSC	179.59
389.8 K, Crystal 1, DSC	177.93
390 K, Crystal 1, DSC	177.1
390.8 K, Crystal 1, DSC	177.1
391.8 K, Crystal 1, DSC	177.1
392.8 K, Crystal 1, DSC	177.1
393.8 K, Crystal 1, DSC	177.1
394.8 K, Crystal 1, DSC	176.27
395.8 K, Crystal 1, DSC	177.1
396.8 K, Crystal 1, DSC	176.27
397.8 K, Crystal 1, DSC	176.27
398.8 K, Crystal 1, DSC	176.27
399.8 K, Crystal 1, DSC	176.27
400 K, Crystal 1, DSC	175.85
400.8 K, Crystal 1, DSC	175.44
402.8 K, Crystal 1, DSC	175.44
404.8 K, Crystal 1, DSC	174.6
407.1 K, Crystal 1, DSC	174.6
408.8 K, Crystal 1, DSC	174.6
410 K, Crystal 1, DSC	175.02
410.8 K, Crystal 1, DSC	174.6
412.8 K, Crystal 1, DSC	174.6
414.8 K, Crystal 1, DSC	174.6
416.8 K, Crystal 1, DSC	174.6
418.8 K, Crystal 1, DSC	174.6
420 K, Crystal 1, DSC	174.52
420.8 K, Crystal 1, DSC	174.6
422.8 K, Crystal 1, DSC	174.6
424.8 K, Crystal 1, DSC	174.6
426.8 K, Crystal 1, DSC	174.6
428.8 K, Crystal 1, DSC	174.6
430 K, Crystal 1, DSC	174.27
430.8 K, Crystal 1, DSC	174.6
432.8 K, Crystal 1, DSC	174.6
434.8 K, Crystal 1, DSC	174.6
436.8 K, Crystal 1, DSC	174.6
438.8 K, Crystal 1, DSC	174.6
440 K, Crystal 1, DSC	174.27
440.8 K, Crystal 1, DSC	173.77
442.8 K, Crystal 1, DSC	174.6
444.8 K, Crystal 1, DSC	174.6
446.8 K, Crystal 1, DSC	174.6
448.8 K, Crystal 1, DSC	173.77
450 K, Crystal 1, DSC	174.44
450.8 K, Crystal 1, DSC	173.77
452.8 K, Crystal 1, DSC	173.77
454.8 K, Crystal 1, DSC	174.6
456.8 K, Crystal 1, DSC	173.77
458.8 K, Crystal 1, DSC	174.6
460 K, Crystal 1, DSC	174.77
460.8 K, Crystal 1, DSC	174.6
462.8 K, Crystal 1, DSC	174.6
464.8 K, Crystal 1, DSC	174.6
466.8 K, Crystal 1, DSC	174.6
468.8 K, Crystal 1, DSC	175.44
470 K, Crystal 1, DSC	175.19
470.8 K, Crystal 1, DSC	175.44
472.8 K, Crystal 1, DSC	175.44
474.8 K, Crystal 1, DSC	175.44
476.8 K, Crystal 1, DSC	176.27
478.8 K, Crystal 1, DSC	176.27
480 K, Crystal 1, DSC	175.68
480.8 K, Crystal 1, DSC	176.27
482.8 K, Crystal 1, DSC	176.27
484.8 K, Crystal 1, DSC	176.27
486.8 K, Crystal 1, DSC	176.27
488.8 K, Crystal 1, DSC	176.27
490 K, Crystal 1, DSC	176.18
490.8 K, Crystal 1, DSC	177.1
492.8 K, Crystal 1, DSC	177.1
494.8 K, Crystal 1, DSC	177.1
496.8 K, Crystal 1, DSC	177.1
498.8 K, Crystal 1, DSC	177.1
500 K, Crystal 1, DSC	176.77
500.8 K, Crystal 1, DSC	177.1
502.8 K, Crystal 1, DSC	177.1
504.8 K, Crystal 1, DSC	177.1
506.8 K, Crystal 1, DSC	177.1
508.8 K, Crystal 1, DSC	177.1
510 K, Crystal 1, DSC	177.26
510.8 K, Crystal 1, DSC	177.1
512.8 K, Crystal 1, DSC	177.1
514.8 K, Crystal 1, DSC	177.1
516.8 K, Crystal 1, DSC	177.1
518.8 K, Crystal 1, DSC	177.1
520 K, Crystal 1, DSC	177.76
520.8 K, Crystal 1, DSC	177.93
522.8 K, Crystal 1, DSC	177.93
524.8 K, Crystal 1, DSC	177.93
526.8 K, Crystal 1, DSC	177.93
528.8 K, Crystal 1, DSC	177.93
530 K, Crystal 1, DSC	178.26
530.8 K, Crystal 1, DSC	177.93
532.8 K, Crystal 1, DSC	177.93
534.8 K, Crystal 1, DSC	177.93
536.8 K, Crystal 1, DSC	177.93
538.8 K, Crystal 1, DSC	178.76
540 K, Crystal 1, DSC	178.76
540.8 K, Crystal 1, DSC	178.76
542.8 K, Crystal 1, DSC	178.76
544.8 K, Crystal 1, DSC	178.76
546.8 K, Crystal 1, DSC	178.76
548.8 K, Crystal 1, DSC	178.76
550 K, Crystal 1, DSC	179.18
550.8 K, Crystal 1, DSC	178.76
552.8 K, Crystal 1, DSC	178.76
554.8 K, Crystal 1, DSC	179.59
556.8 K, Crystal 1, DSC	179.59
558.8 K, Crystal 1, DSC	179.59
560 K, Crystal 1, DSC	179.59
560.8 K, Crystal 1, DSC	179.59
562.8 K, Crystal 1, DSC	179.59
564.8 K, Crystal 1, DSC	179.59
566.8 K, Crystal 1, DSC	180.42
568.8 K, Crystal 1, DSC	180.42
570 K, Crystal 1, DSC	180.01
570.8 K, Crystal 1, DSC	180.42
572.8 K, Crystal 1, DSC	180.42
574.8 K, Crystal 1, DSC	180.42
576.8 K, Crystal 1, DSC	180.42
578.8 K, Crystal 1, DSC	180.42
580 K, Crystal 1, DSC	180.34
580.8 K, Crystal 1, DSC	180.42
582.8 K, Crystal 1, DSC	180.42
584.8 K, Crystal 1, DSC	180.42
586.8 K, Crystal 1, DSC	180.42
588.8 K, Crystal 1, DSC	180.42
590 K, Crystal 1, DSC	180.76
590.8 K, Crystal 1, DSC	181.26
592.8 K, Crystal 1, DSC	181.26
594.8 K, Crystal 1, DSC	181.26
596.8 K, Crystal 1, DSC	181.26
598.8 K, Crystal 1, DSC	181.26
600 K, Crystal 1, DSC	181.26
600.8 K, Crystal 1, DSC	181.26
602.8 K, Crystal 1, DSC	181.26
604.8 K, Crystal 1, DSC	181.26
606.8 K, Crystal 1, DSC	181.26
608.8 K, Crystal 1, DSC	182.09
610 K, Crystal 1, DSC	181.84
610.8 K, Crystal 1, DSC	182.09
612.8 K, Crystal 1, DSC	182.09
614.8 K, Crystal 1, DSC	182.09
616.8 K, Crystal 1, DSC	182.09
618.8 K, Crystal 1, DSC	182.09
620 K, Crystal 1, DSC	182.5
620.8 K, Crystal 1, DSC	182.09
622.8 K, Crystal 1, DSC	182.92
624.8 K, Crystal 1, DSC	182.92
626.8 K, Crystal 1, DSC	182.92
628.8 K, Crystal 1, DSC	182.92
630 K, Crystal 1, DSC	183.25
630.8 K, Crystal 1, DSC	182.92
632.8 K, Crystal 1, DSC	183.75
634.8 K, Crystal 1, DSC	183.75
636.8 K, Crystal 1, DSC	183.75
638.8 K, Crystal 1, DSC	184.58
640 K, Crystal 1, DSC	184.33
640.8 K, Crystal 1, DSC	184.58
642.8 K, Crystal 1, DSC	184.58
644.8 K, Crystal 1, DSC	184.58
646.8 K, Crystal 1, DSC	185.41
648.8 K, Crystal 1, DSC	185.41
650 K, Crystal 1, DSC	185.58
